PubChem BioAssay (NCI)
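48-hour exposure; five concentrations; linearly interpolated endpoints. GI50: concentration for 50% inhibition of growth. TGI: concentration producing complete growth inhibition.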

Experiments:
Assay in all cases: growth of human tumour cells (NCI), 48 h
HS 578T breast = system: HS 578T breast
MDA-MB-435 = system: MDA-MB-435
HT29 colon = system: HT29 colon
DU-145 prostate = system: DU-145 prostate
MALME-3M melanoma = system: MALME-3M melanoma
SN12C renal = system: SN12C renal
MDA-MB-231 breast = system: MDA-MB-231 breast
A498 renal = system: A498 renal
LOX IMVI melanoma = system: LOX IMVI melanoma
COLO 205 colon = system: COLO 205 colon
SNB-75 CNS = system: SNB-75 CNS
HOP-62 NSCLC = system: HOP-62 NSCLC
NCI/ADR-RES ovarian = system: NCI/ADR-RES ovarian
MCF7 breast = system: MCF7 breast
KM12 colon = system: KM12 colon
SK-OV-3 ovarian = system: SK-OV-3 ovarian
EKVX NSCLC = system: EKVX NSCLC
NCI-H23 lung = system: NCI-H23 lung
RXF 393 renal = system: RXF 393 renal
SK-MEL-28 melanoma = system: SK-MEL-28 melanoma
SF-295 CNS = system: SF-295 CNS
NCI-H522 lung = system: NCI-H522 lung
HCT-116 colon = system: HCT-116 colon
SNB-19 CNS = system: SNB-19 CNS
MOLT-4 leukemia = system: MOLT-4 leukemia
NCI-H226 lung = system: NCI-H226 lung
U251 CNS = system: U251 CNS
OVCAR-4 ovarian = system: OVCAR-4 ovarian
SR leukemia = system: SR leukemia
RPMI-8226 leukemia = system: RPMI-8226 leukemia
UO-31 renal = system: UO-31 renal
SW-620 colon = system: SW-620 colon
CAKI-1 renal = system: CAKI-1 renal
NCI-H460 lung = system: NCI-H460 lung
SF-539 CNS = system: SF-539 CNS
IGROV1 ovarian = system: IGROV1 ovarian
CCRF-CEM leukemia = system: CCRF-CEM leukemia
SK-MEL-2 melanoma = system: SK-MEL-2 melanoma
SF-268 CNS = system: SF-268 CNS
HCT-15 colon = system: HCT-15 colon
UACC-62 melanoma = system: UACC-62 melanoma
SK-MEL-5 melanoma = system: SK-MEL-5 melanoma
HCC-2998 colon = system: HCC-2998 colon
K-562 leukemia = system: K-562 leukemia
BT-549 breast = system: BT-549 breast
786-0 renal = system: 786-0 renal
T-47D breast = system: T-47D breast
TK-10 renal = system: TK-10 renal
HOP-92 NSCLC = system: HOP-92 NSCLC
OVCAR-5 ovarian = system: OVCAR-5 ovarian
OVCAR-8 ovarian = system: OVCAR-8 ovarian
A549 NSCLC = system: A549 NSCLC
UACC-257 melanoma = system: UACC-257 melanoma
OVCAR-3 ovarian = system: OVCAR-3 ovarian
ACHN renal = system: ACHN renal

Structure (SMILES): O=C(N/N=C/c1ccccc1O)c1ccccc1O
- GI50 (HS 578T breast): 8.51 µM
- TGI (HS 578T breast): > 100 µM
- GI50 (MDA-MB-435): 3.88 µM
- TGI (MDA-MB-435): > 100 µM
- GI50 (HT29 colon): 11.6 µM
- TGI (HT29 colon): > 100 µM
- GI50 (DU-145 prostate): 0.847 µM
- TGI (DU-145 prostate): > 100 µM
- GI50 (MALME-3M melanoma): 12.6 µM
- TGI (MALME-3M melanoma): > 100 µM
- GI50 (SN12C renal): 1.44 µM
- TGI (SN12C renal): > 100 µM
- GI50 (MDA-MB-231 breast): 0.676 µM
- TGI (MDA-MB-231 breast): > 100 µM
- GI50 (A498 renal): 2.57 µM
- TGI (A498 renal): > 100 µM
- GI50 (LOX IMVI melanoma): 0.286 µM
- TGI (LOX IMVI melanoma): > 100 µM
- GI50 (COLO 205 colon): 3.53 µM
- TGI (COLO 205 colon): > 100 µM
- GI50 (SNB-75 CNS): 0.39 µM
- TGI (SNB-75 CNS): > 100 µM
- GI50 (HOP-62 NSCLC): 0.568 µM
- TGI (HOP-62 NSCLC): > 100 µM
- GI50 (NCI/ADR-RES ovarian): 0.451 µM
- TGI (NCI/ADR-RES ovarian): > 100 µM
- GI50 (MCF7 breast): 0.337 µM
- TGI (MCF7 breast): > 100 µM
- GI50 (KM12 colon): 0.766 µM
- TGI (KM12 colon): > 100 µM
- GI50 (SK-OV-3 ovarian): 1.75 µM
- TGI (SK-OV-3 ovarian): > 100 µM
- GI50 (EKVX NSCLC): 2.23 µM
- TGI (EKVX NSCLC): > 100 µM
- GI50 (NCI-H23 lung): 2.9 µM
- TGI (NCI-H23 lung): > 100 µM
- GI50 (RXF 393 renal): 1.49 µM
- TGI (RXF 393 renal): > 100 µM
- GI50 (SK-MEL-28 melanoma): 1.92 µM
- TGI (SK-MEL-28 melanoma): > 100 µM
- GI50 (SF-295 CNS): 1.27 µM
- TGI (SF-295 CNS): > 100 µM
- GI50 (NCI-H522 lung): 0.303 µM
- TGI (NCI-H522 lung): 17.9 µM
- GI50 (HCT-116 colon): 0.325 µM
- TGI (HCT-116 colon): > 100 µM
- GI50 (SNB-19 CNS): 2.69 µM
- TGI (SNB-19 CNS): > 100 µM
- GI50 (MOLT-4 leukemia): 0.637 µM
- TGI (MOLT-4 leukemia): > 100 µM
- GI50 (NCI-H226 lung): 2.43 µM
- TGI (NCI-H226 lung): > 100 µM
- GI50 (U251 CNS): 0.926 µM
- TGI (U251 CNS): > 100 µM
- GI50 (OVCAR-4 ovarian): 0.297 µM
- TGI (OVCAR-4 ovarian): > 100 µM
- GI50 (SR leukemia): 1.74 µM
- TGI (SR leukemia): > 100 µM
- GI50 (RPMI-8226 leukemia): 1.7 µM
- TGI (RPMI-8226 leukemia): > 100 µM
- GI50 (UO-31 renal): 3.12 µM
- TGI (UO-31 renal): > 100 µM
- GI50 (SW-620 colon): 0.877 µM
- TGI (SW-620 colon): > 100 µM
- GI50 (CAKI-1 renal): 0.488 µM
- TGI (CAKI-1 renal): > 100 µM
- GI50 (NCI-H460 lung): 0.514 µM
- TGI (NCI-H460 lung): > 100 µM
- GI50 (SF-539 CNS): 1.74 µM
- TGI (SF-539 CNS): > 100 µM
- GI50 (IGROV1 ovarian): 0.794 µM
- TGI (IGROV1 ovarian): > 100 µM
- GI50 (CCRF-CEM leukemia): 0.499 µM
- TGI (CCRF-CEM leukemia): > 100 µM
- GI50 (SK-MEL-2 melanoma): 1.03 µM
- TGI (SK-MEL-2 melanoma): > 100 µM
- GI50 (SF-268 CNS): 0.802 µM
- TGI (SF-268 CNS): > 100 µM
- GI50 (HCT-15 colon): 0.423 µM
- TGI (HCT-15 colon): > 100 µM
- GI50 (UACC-62 melanoma): 0.733 µM
- TGI (UACC-62 melanoma): > 100 µM
- GI50 (SK-MEL-5 melanoma): 1.08 µM
- TGI (SK-MEL-5 melanoma): 12.8 µM
- GI50 (HCC-2998 colon): 1.91 µM
- TGI (HCC-2998 colon): > 100 µM
- GI50 (K-562 leukemia): 2.62 µM
- TGI (K-562 leukemia): > 100 µM
- GI50 (BT-549 breast): 4.44 µM
- TGI (BT-549 breast): > 100 µM
- GI50 (786-0 renal): 1.14 µM
- TGI (786-0 renal): > 100 µM
- GI50 (T-47D breast): 0.418 µM
- TGI (T-47D breast): > 100 µM
- GI50 (TK-10 renal): 0.518 µM
- TGI (TK-10 renal): > 100 µM
- GI50 (HOP-92 NSCLC): 0.804 µM
- TGI (HOP-92 NSCLC): > 100 µM
- GI50 (OVCAR-5 ovarian): 4.96 µM
- TGI (OVCAR-5 ovarian): > 100 µM
- GI50 (OVCAR-8 ovarian): 0.618 µM
- TGI (OVCAR-8 ovarian): > 100 µM
- GI50 (A549 NSCLC): 2.08 µM
- TGI (A549 NSCLC): > 100 µM
- GI50 (UACC-257 melanoma): 0.434 µM
- TGI (UACC-257 melanoma): > 100 µM
- GI50 (OVCAR-3 ovarian): 0.437 µM
- TGI (OVCAR-3 ovarian): > 100 µM
- GI50 (ACHN renal): 0.68 µM
- TGI (ACHN renal): > 100 µM
